Experiments:
[1] = tested on: Human Cord Blood CD34+ Cells; assay: FACS analysis of proliferation and differentiation of cord blood CD34+ cells cultured with IL3, G-CSF and Kit-ligand; type: cell-based; conditions: for CD11b+ Cell Population / CD34+CD38+ Cell Population / CD34+CD38− Cell Population: 7 days
Experimental: CB CD34+ cells were initiated at 4×10^4 cells/ml in a 24-well plate in 20% FCS IMDM (fetal calf serum/Iscove's Modified Dulbecco's Medium) supplemented with cytokines (1 L3, GCSF and Kit-ligand) (R&D Systems, Inc.). Thalidomide (Thal), ACTIMID™ or REVIMID™ were included in the culture at three different concentrations: 5 μg/ml, 1 μg/ml and 0.3 μg/ml. The same volumes of DMSO were used as controls. A negative control without, any compound was also used (indicated by “none” in FIGS. 3-7). Cells were cultured at 37° C. and 5% CO2 in a humidified incubator for 7 days. Cells were then harvested from each well.
The total cell number from each well was determined by counting in a CELL-DYN® 1700 (Abbott Diagnostics) and the expression of CXCR4, CD45, CD34, CD38, CD 1 lb and Gly-A expression was analyzed by FACS (fluorescence-activated cell sorting) staining (FIGS. 3-7).
CB cells from two different donors (CB2276 and CB2417) were cultured, assayed and analyzed separately (Table 1).

[2] = tested on: Purified human cord blood CD34+ cells; assay: Monocyte production: CD34/CD14 staining of cord blood CD34+ cells cultured 14 days with cytokines; type: cell-based
Experimental: Purified human cord blood CD34+ cells (greater than 90% CD34+) were cultured in 20% FCS IMDM medium supplemented with cytokines (IL3, IL6, G-CSF, KL and Epo) at 4×10^4 cells/ml for 14 days at 37° C. in a humidified 5% CO2 incubator. The experimental groups consisted of a group in which (i) no DMSO or chemical compounds were added (“None”), (ii) DMSO only, (iii) Thalidomide dissolved in DMSO, (iv) ACTIMID™ dissolved in DMSO, and (v) REVIMID™ dissolved in DMSO. Aliquots of cells were harvested and stained with CD34-PE conjugated monoclonal antibody and CD14-FITC conjugated monoclonal antibody.

[3] = tested on: human cord blood CD45+ cells; assay: Flow cytograms of cord blood CD45+ cells cultured 14 days with IL3, IL6, G-CSF, Epo and KL; type: cell-based; conditions: 5 μg/ml, FIG. 10
Experimental: FIGS. 9(A-F). Flow cytograms. […] Cord blood CD45+ cells were cultured for 14 days with cytokines IL3, IL6, G-CSF, Epo and KL. Percentages indicated on each cytogram indicate the percentage of the cell population expressing a particular combination of markers. A. Control, immunoglobulin (Ig). B. Control, no compound added. C. DMSO (5 μg/ml). D. Thal (5 μg/ml). E. ACTIMID™ (5 μg/ml). F. REVIMID™ (5 μg/ml). X-axis: relative intensity of CD38 (FL1-H) staining. Y-axis: relative intensity of CD19 (FL2-H) staining. See Section 6.3 for details.
FIGS. 10(A-F). Flow cytograms. […] Cord blood CD45+ cells were cultured for 14 days with cytokines IL3, IL6, G-CSF, Epo and KL. Percentages indicated on each cytogram indicate the percentage of the cell population expressing a particular combination of markers. A. Control, immunoglobulin (Ig). B. Control, no compound added. C. DMSO (5 μg/ml). D. Thal (5 μg/ml). E. ACTIMID™ (5 μg/ml). F. REVIMID™ (5 μg/ml). X-axis: relative intensity of CXCR5 (FL1-H) staining. Y-axis: relative intensity of CD34 (FL2-H) staining. See Section 6.3 for details.

[4] = tested on: Human Cord Blood MNC Cells; assay: FACS analysis of cryopreserved and thawed cord blood MNCs after 1 week of culture with cytokines; type: cell-based; conditions: 5 μg in 1.7 μl DMSO, average +/− SD of three wells
Experimental: Cord blood MNCs that had been cryopreserved and thawed using standard methods were isolated by standard Ficoll separation method and cultured in 24 well-plate at 0.5×10^6 cells/ml in 20% FCS-IMDM with cytokines (1L6, KL and G-CSF 10 ng/ml each) in triplicates. The experimental groups were None (cytokines only), DMSO (1.7 μl), ACTIMID™ (5.0 μg in 1.7 μl DMSO), REVIMID™ (5 μg in 1.7 μl DMSO). The cultured cells were harvested and analyzed by FACS staining after 1 week of culture. The data are expressed as an average +/− SD from three independent wells.

[5] = tested on: Cord blood CD34+ hematopoietic progenitor cells; assay: Colony forming unit (CFU) generation from cord blood CD34+ cells; type: cell-based, human; conditions: IL-3, G-CSF, kit-ligand, vs DMSO
Experimental: FIG. 1. Bar graph indicating results of culturing cord blood CD34+ cells in the presence of Thalidomide (THD), ACTIMID™, and REVIMID™ at concentrations of 1 μg/ml and 10 μg/ml. An equal volume of DMSO was used as a negative control. Hematopoietic colonies of burst forming units-erythroid (BFU-E), colony forming units-erythroid (CFU-E), colony forming units-granulocyte macrophage (CFU-GM) and total numbers of colonies (CFU-Total) were scored under the light microscope at day 14 of culture. Y-axis: numbers of colonies. See Section 6.1 for details.
Cord blood CD34+ hematopoietic progenitor cells were plated in 96 well cultivation dishes at a density of 1000 cells per well in IMDM supplemented with 20% fetal calf serum and cytokines (IL-3, G-CSF and kit-ligand (R&D Systems, Inc.) The cells were exposed to Thalidomide (Thal), ACTIMID™ and REVIMID™, or DMSO (a control compound), and allowed to culture for 6 days. […] After culturing, cells were stained and sorted with a fluorescence activated. cell sorter (FACS). 400 μL of stained cells were harvested and diluted to 1.0 ml with 1% fetal calf serum in phosphate buffered saline (PBS). Cells were counted to determine the effect of modulation of stem cell differentiation.

## Nc1cccc2c1CN(C1CCC(=O)NC1=O)C2=O (stereo not drawn) [REVIMID™, 3-(4-amino-1-oxo-1,3-dihydro-isoindol-2-yl)-piperidine-2,6-dione]
[1]; FACS analysis of surface proteins
  expression of CXCR4: inhibitory effect
[1]; IL-3, KL and G-CSF, compared with the DMSO control
  yield of cells: slightly higher number of cells
[1]; IL-3, KL and G-CSF, compared with the negative control (none)
  effect on the proliferation of CD34+ cells: do not have a significant effect
[1]; donor CB2276, 0.3 μg/ml
  CD11b+ Cell Population: 13.3%
  CD34+CD38+ Cell Population: 1.7
  CD34+CD38− Cell Population: 9.8
[1]; donor CB2276, 1 μg/ml
  CD11b+ Cell Population: 8.6%
  CD34+CD38+ Cell Population: 1
  CD34+CD38− Cell Population: 10.3
[1]; donor CB2276, 5 μg/ml
  CD11b+ Cell Population: 4.8%
  CD34+CD38+ Cell Population: 0.3
  CD34+CD38− Cell Population: 4.0
[1]; donor CB2417, 0.3 μg/ml
  CD11b+ Cell Population: 11.2%
  CD34+CD38+ Cell Population: 0.9
  CD34+CD38− Cell Population: 3.4
[1]; donor CB2417, 1 μg/ml
  CD11b+ Cell Population: 8.2%
  CD34+CD38+ Cell Population: 0.6
  CD34+CD38− Cell Population: 3.8
[1]; donor CB2417, 5 μg/ml
  CD11b+ Cell Population: 5.5%
  CD34+CD38+ Cell Population: 0.3
  CD34+CD38− Cell Population: 4.2
[1]; treated cell populations
  CD38 status of the majority of CD34+ and CD34− cells: CD38−
[1]; treated cells
  level of CD11b expression by mean immunofluorescence (MIF): decreased
[2]; 5 μg/ml, compared to control, FIG. 13
  percentage of monocyte lineage cells: increase
[2]; 14 days, IL3, IL6, G-CSF, KL and Epo, compound dissolved in DMSO
  percentage of CD34+ cells of the total cells: 7.1%
[2]; 14 days, relative to DMSO-treated group
  production of monocytes (CD14+ cells): overcome
[3]
  repression of CXCR5 produced by exposure to DMSO: overcomes the repression
[4]
  CD34(%): 2.34 +/− 0.22%
  CD34+CD38−(%): 0.80 +/− 0.29%
  CXCR4+CD45+(%): 3.6 +/− 0.9%
  CXCR4+CD45−(%): 3.28 +/− 0.89%
  Total CD34+ cells: 7166 +/− 802
  Total cells (1 × 10^6): 0.30 +/− 0 1 × 10^6
[5]
  generation of erythropoietic colonies (BFU-E and CFU-E): suppress
  generation of leukocyte and platelet forming colonies (CFU-GM): augmenting
  total colony forming unit (CFU-Total) production: enhancing
